Assay results published in patent US8518944B2, “Compounds as casein kinase inhibitors” (Pfizer Inc., priority 2009, dated 2013).
Structures can show the parent of a compound that is named as a salt.

Columns and labels:
CK1δ = CK1δ (Homo sapiens, UniProt P48730); test: CK1δ kinase assay (Kinase-Glo luminescence); assay type: biochemical; conditions: ATP 10 μM, CK1δ enzyme 2 nM, peptide substrate 42 μM, 25° C., 85 minutes; values marked * are geometric mean of 5-16 determinations; read-out: CKIδ IC50 (nM), geometric mean of 2-4 determinations
Experimental: The CK1δ kinase assay was performed in a standard buffer containing ATP at 10 μM, CK1δ enzyme at 2 nM, and the peptide substrate PLSRTLpSVASLPGL at 42 μM. The reaction was incubated at 25° C. for 85 minutes. Enzyme inhibition was performed in the presence of either 1 μL of CK1δ inhibitor, or 4% DMSO. Detection of luminescent output on a PerkinElmer EnVision plate reader (PerkinElmer, Waltham, Mass.) was performed as described for the Kinase-Glo Assay (Promega).

CK1ε wild type enzyme = CK1ε wild type enzyme (Homo sapiens, UniProt P49674); test: CK1ε kinase assay (Kinase-Glo luminescence); assay type: biochemical; conditions: ATP 10 μM, CK1ε wild type enzyme 2.5 nM, peptide substrate 42 μM, 25° C., 70 minutes; values marked * are geometric mean of 5-16 determinations; read-out: CKIε IC50 (nM), geometric mean of 2-4 determinations
Experimental: The CK1ε kinase assay was performed in a standard buffer containing ATP at 10 μM, CK1ε wild type enzyme at 2.5 nM, and 42 μM concentration of the peptide substrate PLSRTLpSVASLPGL (Flotow et al., 1990). The reaction was incubated at 25° C. for 70 minutes. Enzyme inhibition was measured in the presence of 1 μL of the CK1ε inhibitor, or 4% DMSO. Detection was carried out as described for the Kinase-Glo Assay (Promega). Luminescent output was measured on the PerkinElmer EnVision plate reader (PerkinElmer, Waltham, Mass.).

CK1ε wild type enzyme, sequence (P49674 whole entry): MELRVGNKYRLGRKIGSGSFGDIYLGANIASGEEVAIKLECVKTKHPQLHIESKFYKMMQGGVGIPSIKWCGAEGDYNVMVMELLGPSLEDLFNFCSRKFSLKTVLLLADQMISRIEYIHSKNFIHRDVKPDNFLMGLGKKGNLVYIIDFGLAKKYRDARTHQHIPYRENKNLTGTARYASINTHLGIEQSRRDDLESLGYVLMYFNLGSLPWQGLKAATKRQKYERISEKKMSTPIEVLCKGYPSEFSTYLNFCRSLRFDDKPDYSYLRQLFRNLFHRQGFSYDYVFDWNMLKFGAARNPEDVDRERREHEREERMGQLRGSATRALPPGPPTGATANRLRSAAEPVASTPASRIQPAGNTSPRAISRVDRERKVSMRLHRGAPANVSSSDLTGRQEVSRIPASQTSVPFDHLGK
CK1δ, sequence (P48730 whole entry): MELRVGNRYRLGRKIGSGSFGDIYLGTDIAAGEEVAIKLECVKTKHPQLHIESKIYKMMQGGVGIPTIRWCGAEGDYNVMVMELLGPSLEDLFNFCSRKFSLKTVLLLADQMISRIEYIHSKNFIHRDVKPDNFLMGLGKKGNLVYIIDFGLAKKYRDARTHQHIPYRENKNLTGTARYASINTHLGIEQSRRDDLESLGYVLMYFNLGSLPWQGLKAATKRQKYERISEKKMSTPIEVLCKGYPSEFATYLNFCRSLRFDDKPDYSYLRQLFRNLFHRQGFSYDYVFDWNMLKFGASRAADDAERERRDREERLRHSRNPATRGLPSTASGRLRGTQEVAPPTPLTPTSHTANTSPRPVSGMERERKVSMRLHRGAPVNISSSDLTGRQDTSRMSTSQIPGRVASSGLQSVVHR

Row | Compound | IC50 (CK1δ) | IC50 (CK1ε wild type enzyme)
1 | Nc1nccc(-c2c(-c3ccc(F)cc3)ncn2C2CCN(Cc3ncccn3)CC2)n1 [Example 3, 4-{4-(4-Fluorophenyl)-1-[1-(pyrimidin-2-ylmethyl)piperidin-4-yl]-1H-imidazol-5-yl}pyrimidin-2-amine] | 27.8 nM | 116 nM
2 | Nc1nccc(-c2c(-c3ccc(F)cc3)ncn2C2CCN(Cc3ccnnc3)CC2)n1 [Example 23, 4-{4-(4-fluorophenyl)-1-[1-(pyridazin-4-ylmethyl)piperidin-4-yl]-1H-imidazol-5-yl}pyrimidin-2-amine, trifluoroacetate salt] | 8.51 nM | 34.8 nM
3 | COc1ccc(CN2CCC(n3cnc(-c4ccc(F)cc4)c3-c3ccnc(N)n3)CC2)cn1 [Example 22, 4-[4-(4-fluorophenyl)-1-{1-[(6-methoxypyridin-3-yl)methyl]piperidin-4-yl}-1H-imidazol-5-yl]pyrimidin-2-amine, trifluoroacetate salt] | 83.6 nM | 482 nM
4 | Fc1ccc(-c2ncn(C3CCN(Cc4ccon4)CC3)c2-c2ccncn2)cc1 [Example 6, 4-{4-(4-Fluorophenyl)-1-[1-(isoxazol-3-ylmethyl)piperidin-4-yl]-1H-imidazol-5-yl}pyrimidine, hydrochloride salt] | 24 nM | 126 nM
5 | C[C@@H](c1ccon1)N1CCC(n2cnc(-c3ccc(F)cc3)c2-c2ccncn2)CC1 (single isomer, unassigned) [Example 10] | 64.6 nM | 277 nM
6 | CNc1nccc(-c2c(-c3ccccc3)ncn2C2CCN(Cc3ccon3)CC2)n1 [Example 15, 4-{1-[1-(isoxazol-3-ylmethyl)piperidin-4-yl]-4-phenyl-1H-imidazol-5-yl}-N-methylpyrimidin-2-amine, hydrochloride salt] | 18.6 nM | 76.1 nM
7 | Nc1nccc(-c2c(-c3ccc(F)cc3)ncn2C2CN(Cc3ncccn3)C2)n1 [Example 1, 4-{4-(4-Fluorophenyl)-1-[1-(pyrimidin-2-ylmethyl)azetidin-3-yl]-1H-imidazol-5-yl}pyrimidin-2-amine] | 163 nM | 536 nM
8 | COc1cc(CN2CCC(n3cnc(-c4ccc(F)cc4)c3-c3ccnc(N)n3)CC2)ccn1 [Example 25, 4-[4-(4-fluorophenyl)-1-{1-[(2-methoxypyridin-4-yl)methyl]piperidin-4-yl}-1H-imidazol-5-yl]pyrimidin-2-amine, trifluoroacetate salt] | 84.3 nM | 393 nM

Other lines, results leading:

Row | IC50 (CK1δ) | IC50 (CK1ε wild type enzyme) | Compound
9 | 67.8 nM | 170 nM | Nc1nccc(-c2c(-c3ccc(F)cc3)ncn2C2CCN(Cc3ccc4nccnc4c3)C2)n1 (stereo not drawn) [Example 35, 4-{4-(4-fluorophenyl)-1-[1-(quinoxalin-6-ylmethyl)pyrrolidin-3-yl]-1H-imidazol-5-yl}pyrimidin-2-amine]
10 | 47.6 nM | 165 nM | Cc1cnc(CN2CCC(n3cnc(-c4ccc(F)cc4)c3-c3ccnc(N)n3)C2)c(F)c1 (stereo not drawn) [Example 31, 4-[1-{1-[(3-fluoro-5-methylpyridin-2-yl)methyl]pyrrolidin-3-yl}-4-(4-fluorophenyl)-1H-imidazol-5-yl]pyrimidin-2-amine]
11 | 595 nM | 1990 nM | Cc1c(CN2CCC(n3cnc(-c4ccc(F)cc4)c3-c3ccncn3)C2)nc2ccccn12 (stereo not drawn) [Example 41, 2-({3-[4-(4-fluorophenyl)-5-pyrimidin-4-yl-1H-imidazol-1-yl]pyrrolidin-1-yl}methyl)-3-methylimidazo[1,2-a]pyridine, trifluoroacetate salt]
12 | 54.9 nM | 351 nM | Nc1nccc(-c2c(-c3ccc(F)cc3)ncn2C2CCN(Cc3ccnc(C4CC4)n3)CC2)n1 [Example 28, 4-[1-{1-[(2-cyclopropylpyrimidin-4-yl)methyl]piperidin-4-yl}-4-(4-fluorophenyl)-1H-imidazol-5-yl]pyrimidin-2-amine, trifluoroacetate salt]
